Data taken from US20210322509A1, “Methods for Reducing Perinatal Morbidity and / or Mortality” (CHU SAINTE-JUSTINE, priority 2016, published 2021).
Marks after values point to notes of the source that are not given here. Non-standard residues stand in square brackets, D forms with d. Residues, ends and D or L forms follow the SMILES beside them. ξ: configuration not given here. dThr(3ξ) = CC(O)[C@@H](N)C(=O)O

What was measured:
[1] = system: pups from IL-1β-treated dams; experiment: Behavioral test (spontaneous open field activity); format: in vivo, mice; conditions: PT15
Protocol: Behavioral test (Spontaneous openfield activity). Each animal (PND15 and PND28) was gently placed in the center of the openfield, allowed to freely explore undisturbed for 10 min, after which the animal was removed, the arena cleaned with 70% ethanol and dried prior to testing the next animal. Locomotor activity was indexed as the total distance travelled (cm). The evaluator was blinded to the groups. All movements were monitored and quantified using Smart software.

[2] = system: progeny of C57Bl/6 dams given LPS and/or compound 2; experiment: Offspring growth trajectory and body morphometry at 20 weeks after exposure in utero; format: in vivo, C57Bl/6 mice; conditions: for Adrenals L / Adrenals R / Biceps / Brain / Combined Muscle / Gastrocnemius / Heart / Kidneys L / Kidneys R / Lean body weight / Liver / Lungs / Muscle:fat ratio / Ovary L / Ovary R / Parametrial Fat / Peri-renal Fat / Quadriceps / Retroperitoneal Fat / Spleen / Thymus / Total Central Fat / Triceps / Uterus / Epididymal Fat / Epididymis (L + R) / Seminal Vesicle / Testes L / Testes R: mean ± SEM
Protocol: FIGS. 12A and 12B show the effect of exposure to compound 2 in utero on growth trajectory in offspring. Pregnant females were given either LPS or PBS control i.p. on gd 16.5, then compound 2 or PBS vehicle i.p. at 12 h intervals on gd 16.5, 17.0, 17.5 and 18.0. Growth trajectories of male (FIG. 12A) and female (FIG. 12B) progeny of mothers receiving LPS and/or compound 2 are shown as estimated marginal means±SEM, of n=20 male and n=20 female offspring in each group; *P<0.05). Data was analyzed by a Mixed Model Linear Repeated Measures ANOVA and post-hoc Sidak test.
Animal and treatments. To analyze effects of compound 2 on offspring development into adulthood, pups delivered in the experiment described in Example 5 were weighed at 21 days, when pups were weaned and housed in groups of 1-4 siblings according to sex. All progeny were weighed again at 4 weeks and then every 2 weeks until 20 weeks of age. At 20 weeks, progeny were killed by cervical dislocation, weighed and autopsied for full body composition analysis. The following tissues were excised and weighed individually; brain, heart, lungs (left and right), kidneys (left and right), liver, adrenal glands (left and right), thymus, spleen, testes (males, left and right), seminal vesicle (males), epididymis (males), ovaries (females, left and right), uterus (females), quadriceps (left and right), triceps (left and right), biceps (left and right), gastrocnemius muscle (left and right), retroperitoneal fat, peri-renal fat, epididymal fat (males, left and right) and parametrial fat (females). Weights of bilateral tissues and organs were combined for each mouse. Total muscle weight was calculated by summing the weights of quadriceps, triceps, and biceps and gastrocnemius muscles. Total fat weight was calculated by summing the weights of retroperitoneal fat, peri-renal fat and epididymal fat (for males) or parametrial fat (for females), and the muscle/fat ratio was determined. Total fat weight was subtracted from total body weight to calculate total lean weight.

[3] = 20 week old adult female progeny, LPS + compound 2 in utero
[4] = 20 week old adult female progeny, PBS + compound 2 in utero
[5] = 20 week old adult male progeny, LPS + compound 2 in utero
[6] = 20 week old adult male progeny, PBS + compound 2 in utero

## CC(C)C[C@@H](NC(=O)[C@@H](CCC(=O)O)NC(=O)[C@H](NC(=O)[C@H](NC(=O)[C@@H](Cc1ccc(O)cc1)NC(=O)[C@H](N)CCCNC(=N)N)C(C)O)C(C)C)C(=O)N[C@H](C)C(N)=O (stereo partly drawn) [compound 1] (H-[dR][dY][dThr(3ξ)][dV][dE][dL][dA]-NH2)
[1]
  behavior/locomotion activity (distance travelled, open field): normalization of the behavior/locomotion activity

## CC(C)C[C@@H](NC(=O)[C@@H](CCC(=O)O)NC(=O)[C@H](NC(=O)[C@H](NC(=O)[C@@H](Cc1ccc(O)cc1)NC(=O)[C@H](N)CCCNC(=N)N)C(C)O)C(C)C)C(=O)N[C@H](C)C(=O)O (stereo partly drawn) [compound 2] (H-[dR][dY][dThr(3ξ)][dV][dE][dL][dA]-OH)
[2]; [3]
  Adrenals L: 4 ± 0 mg
  Adrenals R: 4 ± 0 mg
  Biceps: 48 ± 3 mg
  Brain: 408 ± 9 mg
  Combined Muscle: 673 ± 25 mg
  Gastrocnemius: 207 ± 8 mg
  Heart: 105 ± 4 mg
  Kidneys L: 120 ± 5 mg
  Kidneys R: 127 ± 6 mg
  Lean body weight: 19.44 g
  Liver: 955 ± 38 mg
  Lungs: 165 ± 10 mg
  Muscle:fat ratio: 1.23 ± 0.06
  Ovary L: 13 ± 2 mg
  Ovary R: 13 ± 1 mg
  Parametrial Fat: 180 ± 20 mg
  Peri-renal Fat: 66 ± 7 mg
  Quadriceps: 254 ± 13 mg
  Retroperitoneal Fat: 317 ± 18 mg
  Spleen: 86 ± 7 mg
  Thymus: 70 ± 5 mg
  Total Central Fat: 562 ± 41 mg
  Triceps: 165 ± 7 mg
  Uterus: 66 ± 8 mg
[2]; [4]
  Adrenals L: 4 ± 0 mg
  Adrenals R: 4 ± 0 mg
  Biceps: 51 ± 3 mg
  Brain: 406 ± 9 mg
  Combined Muscle: 690 ± 24 mg
  Gastrocnemius: 215 ± 8 mg
  Heart: 109 ± 3 mg
  Kidneys L: 112 ± 5 mg
  Kidneys R: 122 ± 6 mg
  Lean body weight: 19.85 g
  Liver: 945 ± 37 mg
  Lungs: 174 ± 11 mg
  Muscle:fat ratio: 1.18 ± 0.06
  Ovary L: 16 ± 2 mg
  Ovary R: 16 ± 1 mg
  Parametrial Fat: 192 ± 20 mg
  Peri-renal Fat: 71 ± 7 mg
  Quadriceps: 254 ± 12 mg
  Retroperitoneal Fat: 326 ± 18 mg
  Spleen: 93 ± 7 mg
  Thymus: 64 ± 5 mg
  Total Central Fat: 589 ± 40 mg
  Triceps: 170 ± 7 mg
  Uterus: 63 ± 7 mg
[2]; [5]
  Adrenals L: 4 ± 0 mg
  Adrenals R: 3 ± 1 mg
  Biceps: 58 ± 3 mg
  Brain: 413 ± 5 mg
  Combined Muscle: 848 ± 18 mg
  Epididymal Fat: 224 ± 16 mg
  Epididymis (L + R): 102 ± 3* mg
  Gastrocnemius: 260 ± 7 mg
  Heart: 128 ± 3 mg
  Kidneys L: 149 ± 5 mg
  Kidneys R: 159 ± 5 mg
  Lean body weight: 23.04 g
  Liver: 1097 ± 40 mg
  Lungs: 173 ± 4 mg
  Muscle:fat ratio: 1.39
  Peri-renal Fat: 65 ± 6 mg
  Quadriceps: 313 ± 8 mg
  Retroperitoneal Fat: 334 ± 26 mg
  Seminal Vesicle: 218 ± 9 mg
  Testes L: 84 ± 3 mg
  Testes R: 85 ± 3 mg
  Total Central Fat: 625 ± 37 mg
  Triceps: 217 ± 6 mg
[2]; [6]
  Adrenals L: 5 ± 0 mg
  Adrenals R: 6 ± 2 mg
  Biceps: 67 ± 4 mg
  Brain: 404 ± 7 mg
  Combined Muscle: 840 ± 23 mg
  Epididymal Fat: 244 ± 20 mg
  Epididymis (L + R): 112 ± 4 mg
  Gastrocnemius: 241 ± 9 mg
  Heart: 131 ± 4 mg
  Kidneys L: 156 ± 6 mg
  Kidneys R: 162 ± 6 mg
  Lean body weight: 23.59 g
  Liver: 1141 ± 47 mg
  Lungs: 181 ± 5 mg
  Muscle:fat ratio: 1.28
  Peri-renal Fat: 72 ± 7 mg
  Quadriceps: 318 ± 10 mg
  Retroperitoneal Fat: 353 ± 30 mg
  Seminal Vesicle: 233 ± 12 mg
  Testes L: 85 ± 3 mg
  Testes R: 87 ± 3 mg
  Thymus: 53 ± 4 mg
  Total Central Fat: 669 ± 46 mg
  Triceps: 215 ± 8 mg
[2]; compound 2 exposure in utero, 20 weeks
  body composition of adult offspring: no effect
[2]; compound 2 to dams, with or without concurrent LPS exposure, up to 20 weeks
  growth trajectory of male and female offspring: not affected
